Activity data for two compounds are collected here from ChEMBL document CHEMBL2073901, “Enhancement of doxorubicin activity in multidrug-resistant cells by mefloquine” (Methods Find Exp Clin Pharmacol, 2000).

Each structure is given as a SMILES string.

The target of series [1] is T1, ATP-dependent translocase ABCB1 (Homo sapiens, UniProt P08183). In words: TP_TRANSPORTER: increase in Rhodamine 123 intracellular accumulation (R123: 10 uM, Mefloquine: 10 uM) in K562/DOX cells. It is filed as functional, cell-based. As to conditions: k562/adr.
T1 sequence (P08183 whole entry): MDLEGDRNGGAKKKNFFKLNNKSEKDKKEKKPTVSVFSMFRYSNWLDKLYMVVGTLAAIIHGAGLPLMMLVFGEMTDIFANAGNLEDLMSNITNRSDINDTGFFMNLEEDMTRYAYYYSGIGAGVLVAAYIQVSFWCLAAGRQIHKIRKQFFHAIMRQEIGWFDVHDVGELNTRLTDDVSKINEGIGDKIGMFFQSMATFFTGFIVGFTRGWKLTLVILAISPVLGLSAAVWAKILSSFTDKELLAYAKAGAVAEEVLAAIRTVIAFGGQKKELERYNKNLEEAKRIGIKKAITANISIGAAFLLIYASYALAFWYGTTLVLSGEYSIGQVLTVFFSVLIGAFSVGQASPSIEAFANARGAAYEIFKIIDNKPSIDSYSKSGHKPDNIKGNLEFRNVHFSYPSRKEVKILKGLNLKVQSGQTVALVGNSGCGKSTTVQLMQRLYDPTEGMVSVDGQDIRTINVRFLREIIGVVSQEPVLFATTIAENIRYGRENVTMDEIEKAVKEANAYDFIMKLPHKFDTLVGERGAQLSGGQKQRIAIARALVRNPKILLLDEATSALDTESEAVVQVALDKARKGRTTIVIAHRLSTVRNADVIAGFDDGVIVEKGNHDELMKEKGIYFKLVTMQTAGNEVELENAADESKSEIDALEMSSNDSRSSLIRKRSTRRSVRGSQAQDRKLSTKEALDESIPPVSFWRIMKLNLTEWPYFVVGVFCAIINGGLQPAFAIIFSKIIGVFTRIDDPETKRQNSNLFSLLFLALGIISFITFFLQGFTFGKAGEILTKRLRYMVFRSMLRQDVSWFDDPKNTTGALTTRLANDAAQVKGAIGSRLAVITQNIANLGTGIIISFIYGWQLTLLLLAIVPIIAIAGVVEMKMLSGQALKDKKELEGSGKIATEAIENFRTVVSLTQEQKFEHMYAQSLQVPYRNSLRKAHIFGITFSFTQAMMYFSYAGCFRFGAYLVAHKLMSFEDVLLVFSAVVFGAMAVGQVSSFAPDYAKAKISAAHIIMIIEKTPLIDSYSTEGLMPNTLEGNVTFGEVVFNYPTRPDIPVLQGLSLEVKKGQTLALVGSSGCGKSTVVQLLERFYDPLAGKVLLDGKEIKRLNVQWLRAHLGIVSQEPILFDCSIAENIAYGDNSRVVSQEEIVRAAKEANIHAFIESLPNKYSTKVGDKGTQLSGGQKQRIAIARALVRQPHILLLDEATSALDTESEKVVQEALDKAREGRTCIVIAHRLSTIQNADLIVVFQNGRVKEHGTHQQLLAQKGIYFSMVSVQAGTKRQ
The target of series [2] is T1, ATP-dependent translocase ABCB1. Nature of the series: TP_TRANSPORTER: inhibition of Azidopine photoaffinity labelling (Azidopine: 0.1 uM, Mefloquine: 10 uM) in membranes from K562/DOX cells. It counts as functional, cell membranes, Membrane. The conditions noted are these: k562/adr.
For series [3] the target is unchanged. Nature of the series: TP_TRANSPORTER: intracellular accumulation in K562 and K562/DXR cells. It is filed as functional, cell-based.

Turning to `OC(c1cc(C(F)(F)F)nc2c(C(F)(F)F)cccc12)C1CCCCN1` (stereo not drawn) [MEFLOQUINE], the Activity entry in series [1] and in series [2] was “inhibitor [+]” in each case.

Take `COC(=O)c1ccccc1-c1c2ccc(=N)cc-2oc2cc(N)ccc12.Cl` [RHODAMINE123]: the Activity result in series [3] was “substrate [+]”.
